Results as given in PubChem BioAssay (NCI).
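Protocol summary: plate cells (96-well), add compound at 5 concentrations, incubate 48 h, interpolate endpoints linearly. GI50 is the concentration that inhibits growth by half. TGI denotes the concentration required for complete inhibition of growth.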

Assays:
Test in all cases: growth of human tumour cells (NCI), 48 h
OVCAR-8 ovarian = test system: OVCAR-8 ovarian
RPMI-8226 leukemia = test system: RPMI-8226 leukemia
OVCAR-4 ovarian = test system: OVCAR-4 ovarian
HOP-92 NSCLC = test system: HOP-92 NSCLC
ACHN renal = test system: ACHN renal
NCI-H460 lung = test system: NCI-H460 lung
SK-MEL-28 melanoma = test system: SK-MEL-28 melanoma
UACC-257 melanoma = test system: UACC-257 melanoma
DU-145 prostate = test system: DU-145 prostate
MOLT-4 leukemia = test system: MOLT-4 leukemia
KM12 colon = test system: KM12 colon
HL-60(TB) leukemia = test system: HL-60(TB) leukemia
MCF7 breast = test system: MCF7 breast
HS 578T breast = test system: HS 578T breast
NCI-H23 lung = test system: NCI-H23 lung
HT29 colon = test system: HT29 colon
SNB-75 CNS = test system: SNB-75 CNS
CCRF-CEM leukemia = test system: CCRF-CEM leukemia
SNB-19 CNS = test system: SNB-19 CNS
U251 CNS = test system: U251 CNS
SF-539 CNS = test system: SF-539 CNS
MALME-3M melanoma = test system: MALME-3M melanoma
UO-31 renal = test system: UO-31 renal
NCI-H226 lung = test system: NCI-H226 lung
SK-MEL-2 melanoma = test system: SK-MEL-2 melanoma
UACC-62 melanoma = test system: UACC-62 melanoma
K-562 leukemia = test system: K-562 leukemia
IGROV1 ovarian = test system: IGROV1 ovarian
SW-620 colon = test system: SW-620 colon
NCI/ADR-RES ovarian = test system: NCI/ADR-RES ovarian
SK-MEL-5 melanoma = test system: SK-MEL-5 melanoma
M14 melanoma = test system: M14 melanoma
786-0 renal = test system: 786-0 renal
NCI-H522 lung = test system: NCI-H522 lung
LOX IMVI melanoma = test system: LOX IMVI melanoma
TK-10 renal = test system: TK-10 renal
SF-268 CNS = test system: SF-268 CNS
RXF 393 renal = test system: RXF 393 renal
BT-549 breast = test system: BT-549 breast
OVCAR-5 ovarian = test system: OVCAR-5 ovarian
HCC-2998 colon = test system: HCC-2998 colon
SK-OV-3 ovarian = test system: SK-OV-3 ovarian
SF-295 CNS = test system: SF-295 CNS
HCT-116 colon = test system: HCT-116 colon
T-47D breast = test system: T-47D breast
A549 NSCLC = test system: A549 NSCLC
MDA-MB-231 breast = test system: MDA-MB-231 breast
SN12C renal = test system: SN12C renal
HCT-15 colon = test system: HCT-15 colon
PC-3 prostate = test system: PC-3 prostate
COLO 205 colon = test system: COLO 205 colon
SR leukemia = test system: SR leukemia
CAKI-1 renal = test system: CAKI-1 renal
MDA-MB-435 = test system: MDA-MB-435
A498 renal = test system: A498 renal
HOP-62 NSCLC = test system: HOP-62 NSCLC

## Nc1ccc(-c2nnc(SCc3ccc(O)c4ncccc34)o2)cc1
OVCAR-8 ovarian
  GI50: 41.8 nM
  TGI: > 100000 nM
RPMI-8226 leukemia
  GI50: 46.1 nM
  TGI: > 100000 nM
OVCAR-4 ovarian
  GI50: 259 nM
  TGI: > 100000 nM
HOP-92 NSCLC
  GI50: 23.8 nM
  TGI: 72.4 nM
ACHN renal
  GI50: 72.6 nM
  TGI: > 31900 nM
NCI-H460 lung
  GI50: 36.7 nM
SK-MEL-28 melanoma
  GI50: 139 nM
  TGI: > 100000 nM
UACC-257 melanoma
  GI50: 207 nM
  TGI: 910 nM
DU-145 prostate
  GI50: 55 nM
  TGI: > 38500 nM
MOLT-4 leukemia
  GI50: 124 nM
  TGI: > 100000 nM
KM12 colon
  GI50: 128 nM
  TGI: > 100000 nM
HL-60(TB) leukemia
  GI50: 98.7 nM
  TGI: 1220 nM
MCF7 breast
  GI50: 38.7 nM
  TGI: > 100000 nM
HS 578T breast
  GI50: 50.9 nM
  TGI: > 100000 nM
NCI-H23 lung
  GI50: 49.2 nM
  TGI: > 26900 nM
HT29 colon
  GI50: 485 nM
  TGI: > 100000 nM
SNB-75 CNS
  GI50: 112 nM
  TGI: 12900 nM
CCRF-CEM leukemia
  GI50: 61.7 nM
  TGI: > 100000 nM
SNB-19 CNS
  GI50: 43.8 nM
  TGI: > 51800 nM
U251 CNS
  GI50: 35.4 nM
  TGI: 11800 nM
SF-539 CNS
  GI50: 64.2 nM
  TGI: 8750 nM
MALME-3M melanoma
  GI50: 92.7 nM
  TGI: 31900 nM
UO-31 renal
  GI50: 61.9 nM
  TGI: 1910 nM
NCI-H226 lung
  GI50: 441 nM
  TGI: > 100000 nM
SK-MEL-2 melanoma
  GI50: 79.2 nM
  TGI: 2730 nM
UACC-62 melanoma
  GI50: 249 nM
  TGI: 2280 nM
K-562 leukemia
  GI50: 44.2 nM
  TGI: > 100000 nM
IGROV1 ovarian
  GI50: 84.6 nM
  TGI: > 41900 nM
SW-620 colon
  GI50: 61.8 nM
  TGI: > 100000 nM
NCI/ADR-RES ovarian
  GI50: 43.9 nM
  TGI: > 100000 nM
SK-MEL-5 melanoma
  GI50: 49.1 nM
M14 melanoma
  GI50: 60.4 nM
  TGI: 2810 nM
786-0 renal
  GI50: 224 nM
  TGI: 16700 nM
NCI-H522 lung
  GI50: 44 nM
  TGI: > 50700 nM
LOX IMVI melanoma
  GI50: 30.5 nM
  TGI: > 33700 nM
TK-10 renal
  GI50: 132 nM
SF-268 CNS
  GI50: 64.1 nM
  TGI: > 75300 nM
RXF 393 renal
  GI50: 90.6 nM
  TGI: > 85900 nM
BT-549 breast
  GI50: 55.8 nM
  TGI: > 100000 nM
OVCAR-5 ovarian
  GI50: 498 nM
  TGI: > 100000 nM
HCC-2998 colon
  GI50: 177 nM
  TGI: > 100000 nM
SK-OV-3 ovarian
  GI50: 80.7 nM
  TGI: 577 nM
SF-295 CNS
  GI50: 41.2 nM
  TGI: > 39000 nM
HCT-116 colon
  GI50: 37.9 nM
  TGI: 28800 nM
T-47D breast
  GI50: 85 nM
  TGI: > 100000 nM
A549 NSCLC
  GI50: 41.7 nM
  TGI: > 100000 nM
MDA-MB-231 breast
  GI50: 154 nM
  TGI: 22600 nM
SN12C renal
  GI50: 39.2 nM
  TGI: > 100000 nM
HCT-15 colon
  GI50: 38.2 nM
  TGI: > 100000 nM
PC-3 prostate
  GI50: 50.2 nM
  TGI: > 100000 nM
COLO 205 colon
  GI50: 442 nM
  TGI: 2450 nM
SR leukemia
  GI50: 89.1 nM
  TGI: > 100000 nM
CAKI-1 renal
  GI50: 179 nM
  TGI: > 68100 nM
MDA-MB-435
  GI50: 45.4 nM
  TGI: > 100000 nM
A498 renal
  GI50: 317 nM
  TGI: 3300 nM
HOP-62 NSCLC
  GI50: 81.5 nM
  TGI: 7620 nM
